# Experimental data from patent US20040235723A1, “Method of screening abc protein promoter/inhibitor” (priority 2001, published 2004).
# Read-outs that look alike come from different tables or passages of the source.
# What was measured:
# KHW3 + pYI-PDR5 = assay: MIC on SD-uracil agar medium, KHW3 + pYI-PDR5; type: cell-based; settings: Saccharomyces cerevisiae, 48 h
# Experimental: (§1) A double gene disruption strain KHW2 deficient in PDR5 (Δsyr1/erg3::HIS Δpdr5::LEU2), a double gene disruption strain KHW4 deficient in SNQ2 which is another drug-discharging ABC transporter of yeast (Δpdr5::LEU2 Δsnq2::HIS3) and a triple gene disruption strain […] deficient in PDR5 and SNQ2 (Δsyr1/erg3::HIS3 Δpdr5::LEU2 Δsnq2::HIS3) were prepared from an SYR1/ERG3 gene disruption strain KHW1 of Saccharomyces cerevisiae W303-1A (wild type) (Δsyr1/erg3::HIS3). Preparation of multiple gene disruption strains was carried out in such a manner that a host strain was transformed by a plasmid for disruption of gene where LEU2 gene or […] gene was a marker and the disrupted strain where each drug-resistant gene was disrupted by insertion of LEU2 or HIS3 gene was selected using recovery of requirement of leucine or histidine as an index. Each of the multiple gene disruption strains was confirmed by an increase in sensitivity to cycloheximide and cerulenin while gene disruption of PDR5 and SNQ2 was confirmed by a southern hybridization.
# KHW4 + pYI = assay: MIC on SD-uracil agar medium, KHW4 + pYI; type: cell-based; settings: Saccharomyces cerevisiae, 48 h
# Experimental: as §1
# PDR5 transporter = target: T1, PDR5 transporter (Saccharomyces cerevisiae, UniProt P33302); assay: Agar well diffusion growth inhibition assay for PDR5 transporter inhibition, KHW3+pYI-PDR5; type: cell-based; settings: cycloheximide 0.04 μg/ml or cerulenin 0.4 μg/ml, without FK 506
# T1 construct: expressed in transfected cells; host or cells: Saccharomyces cerevisiae KHW3 (Δsyr1/erg3::HIS3 Δpdr5::LEU2 Δsnq2::HIS3) carrying plasmid pYI-PDR5
# T1 sequence (P33302 whole entry, the tested form may be a part): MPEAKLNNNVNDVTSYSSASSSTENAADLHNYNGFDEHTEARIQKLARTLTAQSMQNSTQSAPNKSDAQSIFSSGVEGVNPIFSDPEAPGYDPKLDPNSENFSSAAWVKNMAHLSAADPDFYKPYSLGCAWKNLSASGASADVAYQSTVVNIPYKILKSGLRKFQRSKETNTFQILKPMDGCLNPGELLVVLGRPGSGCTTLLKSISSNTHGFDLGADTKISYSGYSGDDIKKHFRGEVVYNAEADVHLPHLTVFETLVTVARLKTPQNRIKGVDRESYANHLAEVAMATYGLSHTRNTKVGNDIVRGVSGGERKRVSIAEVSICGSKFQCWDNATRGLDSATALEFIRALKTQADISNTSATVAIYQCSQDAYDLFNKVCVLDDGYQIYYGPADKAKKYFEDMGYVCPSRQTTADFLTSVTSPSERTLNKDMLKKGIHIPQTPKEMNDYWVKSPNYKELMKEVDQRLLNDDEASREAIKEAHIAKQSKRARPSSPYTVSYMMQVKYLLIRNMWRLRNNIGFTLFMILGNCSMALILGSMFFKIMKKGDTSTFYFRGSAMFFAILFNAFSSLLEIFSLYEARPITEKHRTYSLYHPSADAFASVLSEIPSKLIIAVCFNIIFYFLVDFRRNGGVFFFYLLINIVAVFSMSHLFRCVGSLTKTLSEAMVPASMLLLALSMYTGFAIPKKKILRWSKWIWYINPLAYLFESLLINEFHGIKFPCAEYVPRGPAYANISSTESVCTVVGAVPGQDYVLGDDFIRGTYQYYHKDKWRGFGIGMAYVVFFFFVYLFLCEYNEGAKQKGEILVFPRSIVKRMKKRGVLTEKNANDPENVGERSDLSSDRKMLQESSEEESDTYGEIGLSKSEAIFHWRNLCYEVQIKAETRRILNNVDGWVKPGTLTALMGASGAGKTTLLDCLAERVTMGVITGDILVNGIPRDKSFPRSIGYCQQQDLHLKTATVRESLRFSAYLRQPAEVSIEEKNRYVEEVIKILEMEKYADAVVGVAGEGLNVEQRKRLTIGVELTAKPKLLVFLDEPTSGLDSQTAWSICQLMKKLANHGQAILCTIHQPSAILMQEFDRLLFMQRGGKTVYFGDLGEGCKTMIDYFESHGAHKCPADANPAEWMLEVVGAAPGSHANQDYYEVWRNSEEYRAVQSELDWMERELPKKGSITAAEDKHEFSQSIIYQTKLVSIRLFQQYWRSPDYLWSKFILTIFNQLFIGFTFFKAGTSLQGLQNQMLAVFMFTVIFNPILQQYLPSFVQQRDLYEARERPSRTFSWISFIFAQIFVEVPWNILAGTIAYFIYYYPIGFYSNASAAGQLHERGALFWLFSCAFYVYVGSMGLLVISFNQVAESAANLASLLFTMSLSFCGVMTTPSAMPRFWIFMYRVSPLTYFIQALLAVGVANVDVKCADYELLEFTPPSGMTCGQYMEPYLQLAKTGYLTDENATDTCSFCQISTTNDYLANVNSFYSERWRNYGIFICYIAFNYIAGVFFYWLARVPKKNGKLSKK
# Experimental: (§2) Yeast cells grown on an SD-uracil medium were suspended in a soft agar dissolved in 4 ml at 50° C. so as to make 1×10^5 cells/ml, mixed after addition of a drug such as cycloheximide or cerulenin if necessary and layered on an SD-uracil medium containing the drug of the same concentration. After the soft agar was solidified, a pore of 8 mm diameter was formed on a part of the soft agar and 50 μl of the test substance were poured thereinto. The plate was incubated at 32° C. for 48 hours and […] of growth inhibition ring around the well was measured whereupon activity of the test substance for inhibiting the discharge of cycloheximide and cerulenin by the PDR transporter was evaluated.
# (§3) Unit for the growth inhibition activity was defined as follows. Thus, when a triple gene disruption strain KHW3 (Δsyr1/erg3::HIS3 Δpdr5::LEU2 Δsnq2::HIS3) was used and diameter of the inhibition ring measured by the above agar well diffusion method was plotted to logarithm of cycloheximide concentration where cycloheximide of 8-200 μg/ml was used as a standard substance, it was noted there was a linear relation as shown in FIG. 1. Growth inhibition activity showing an inhibition ring of 20 mm to KHW3 containing pYI was defined as 20 inhibition units per ml (IU/ml) and, using the above-mentioned standard curve of cycloheximide, inhibition units of test substances were calculated. […]
# KHW4 + pYI-PDR5 = assay: MIC on SD-uracil agar medium, KHW4 + pYI-PDR5; type: cell-based; settings: Saccharomyces cerevisiae, 48 h
# Experimental: as §1
# W303-1A + pYI = assay: MIC on SD-uracil agar medium, wild strain W303-1A + pYI; type: cell-based; settings: Saccharomyces cerevisiae, 48 h
# KHW1 + pYI = assay: MIC on SD-uracil agar medium, SYR1 gene disruption strain KHW1 + pYI; type: cell-based, Saccharomyces cerevisiae; settings: for MIC: Saccharomyces cerevisiae, 48 h; for Increase of sensitivity of SYR1 gene disruption strain (KHW1+pYI) compared with wild strain (W303-1A+pYI): ratio of MIC values
# Experimental: as §1
# KHW3 + pYI = assay: MIC on SD-uracil agar medium, triple gene disruption strain KHW3 + pYI; type: cell-based, Saccharomyces cerevisiae; settings: for MIC: Saccharomyces cerevisiae, 48 h; for Increase of sensitivity of triple gene disruption strain KHW3 compared with wild strain: ratio of MIC values
# Experimental: as §1
# KHW3+pYI = assay: Agar well diffusion growth inhibition assay, cytotoxicity check on KHW3+pYI; type: cell-based, Saccharomyces cerevisiae; settings: FK 506 solution 12.5 μg/ml, 50 μl per well; 32° C., 48 hours; no drug in medium
# Experimental: as §2, §3
Structure (SMILES),"MIC (KHW3 + pYI-PDR5; KHW3 + pYI-PDR5, 32° C., two days, read-out: MIC)","MIC (KHW4 + pYI; KHW4 + pYI, 32° C., two days, read-out: MIC)",Growth inhibition of KHW3+pYI-PDR5 by sole drug in medium (PDR5 transporter),MIC (KHW4 + pYI-PDR5),"MIC (W303-1A + pYI; W303-1A + pYI (wild strain), 32° C., two days, read-out: MIC)","MIC (KHW1 + pYI; KHW1 + pYI, 32° C., two days, read-out: MIC)",Increase of sensitivity of SYR1 gene disruption strain (KHW1+pYI) compared with wild strain (W303-1A+pYI) (KHW1 + pYI),"MIC (KHW3 + pYI; KHW3 + pYI, 32° C., two days, read-out: MIC)",Increase of sensitivity of triple gene disruption strain KHW3 compared with wild strain (KHW3 + pYI),MIC (KHW3 + pYI-PDR5),MIC (KHW4 + pYI),MIC (W303-1A + pYI),MIC (KHW1 + pYI),MIC (KHW3 + pYI),Growth inhibition of KHW3+pYI by test substance alone (cytotoxicity) (KHW3+pYI)
"C/C=C/C/C=C/CCC(=O)[C@H]1O[C@H]1C(N)=O [Cerulenin, cerulenin]",0.8 µg/mL,0.4 µg/mL,not inhibited,0.6 µg/mL,0.8 µg/mL,0.4 µg/mL,2 fold,0.2 µg/mL,4 fold,–,–,–,–,–,–
"C[C@@H]1C[C@@H]([C@H](O)CC2CC(=O)NC(=O)C2)C(=O)[C@@H](C)C1 [Cycloheximide, cycloheximide]",–,–,not inhibited,> 0.32 µg/mL,–,–,4 fold,–,16 fold,0.16 µg/mL,0.02 µg/mL,0.16 µg/mL,0.04 µg/mL,0.01 µg/mL,–
C=CC[C@@H]1/C=C(\C)C[C@H](C)C[C@H](OC)[C@H]2O[C@@](O)(C(=O)C(=O)N3CCCC[C@H]3C(=O)O[C@H](/C(C)=C/[C@@H]3CC[C@@H](O)[C@H](OC)C3)[C@H](C)[C@@H](O)CC1=O)[C@H](C)C[C@@H]2OC [FK 506],–,–,–,–,–,–,–,–,–,–,–,–,–,–,did not inhibit the growth of KHW3+pYI
